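Cells were grown in 96-well plates and exposed to each compound for 48 hours at five concentrations; endpoints were interpolated linearly between bracketing concentrations, or set to the highest concentration if not reached. GI50: concentration for 50% inhibition of growth.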 The source made the active and inactive calls. No stated cut-off is given here; in the data, active = GI50 up to about 1.1 µM and inactive = higher.
How the values were obtained:
Assay in all cases: inhibition of tumour cell growth, NCI panel, 48 h
HL-60 = system: HL-60
HT-29 = system: HT-29
OVCAR-3 = system: OVCAR-3
LOX IMVI = system: LOX IMVI
HCT-116 = system: HCT-116
NCI/ADR-RES = system: NCI/ADR-RES
OVCAR-4 = system: OVCAR-4
SF-295 = system: SF-295
MDA-MB-231 = system: MDA-MB-231
T47D = system: T47D
SNB-75 = system: SNB-75
HOP-62 = system: HOP-62
A498 = system: A498
CAKI-1 = system: CAKI-1
SK-MEL-2 = system: SK-MEL-2
HOP-92 = system: HOP-92
786-0 = system: 786-0
MDA-MB-435 = system: MDA-MB-435
UACC-62 = system: UACC-62
NCI-H226 = system: NCI-H226
NCI-H23 = system: NCI-H23
Malme-3M = system: Malme-3M
SNB-19 = system: SNB-19
ACHN = system: ACHN
SK-MEL-28 = system: SK-MEL-28
NCI-H460 = system: NCI-H460
A549 = system: A549
NCI-H522 = system: NCI-H522
BT-549 = system: BT-549
SN12C = system: SN12C
SR = system: SR
KM12 = system: KM12
TK-10 = system: TK-10
MDA-N = system: MDA-N
EKVX = system: EKVX
OVCAR-8 = system: OVCAR-8
MCF7 = system: MCF7
MOLT-4 = system: MOLT-4
RXF 393 = system: RXF 393
UACC-257 = system: UACC-257
DU-145 = system: DU-145
HCC 2998 = system: HCC 2998
CCRF-CEM = system: CCRF-CEM
IGROV-1 = system: IGROV-1
HCT-15 = system: HCT-15
UO-31 = system: UO-31
OVCAR-5 = system: OVCAR-5
PC-3 = system: PC-3
RPMI-8226 = system: RPMI-8226
SW-620 = system: SW-620
M14 = system: M14
SK-OV-3 = system: SK-OV-3
U-251 = system: U-251
Hs-578T = system: Hs-578T
COLO 205 = system: COLO 205
SF-268 = system: SF-268
SK-MEL-5 = system: SK-MEL-5
K562 = system: K562

Compound: O=C(O)[C@@H]1NC[C@H]2C(Br)=NO[C@H]21
- GI50 (HL-60): > 100 µM (inactive)
- GI50 (HT-29): > 100 µM (inactive)
- GI50 (OVCAR-3): > 100 µM (inactive)
- GI50 (LOX IMVI): > 100 µM (inactive)
- GI50 (HCT-116): > 100 µM (inactive)
- GI50 (NCI/ADR-RES): > 100 µM (inactive)
- GI50 (OVCAR-4): > 100 µM (inactive)
- GI50 (SF-295): > 100 µM (inactive)
- GI50 (MDA-MB-231): > 100 µM (inactive)
- GI50 (T47D): > 100 µM (inactive)
- GI50 (SNB-75): > 100 µM (inactive)
- GI50 (HOP-62): > 100 µM (inactive)
- GI50 (A498): > 100 µM (inactive)
- GI50 (CAKI-1): > 100 µM (inactive)
- GI50 (SK-MEL-2): > 100 µM (inactive)
- GI50 (HOP-92): > 100 µM (inactive)
- GI50 (786-0): > 100 µM (inactive)
- GI50 (MDA-MB-435): > 100 µM (inactive)
- GI50 (UACC-62): > 100 µM (inactive)
- GI50 (NCI-H226): > 100 µM (inactive)
- GI50 (NCI-H23): > 100 µM (inactive)
- GI50 (Malme-3M): > 100 µM (inactive)
- GI50 (SNB-19): > 100 µM (inactive)
- GI50 (ACHN): > 100 µM (inactive)
- GI50 (SK-MEL-28): > 100 µM (inactive)
- GI50 (NCI-H460): 78.2 µM (inactive)
- GI50 (A549): > 100 µM (inactive)
- GI50 (NCI-H522): > 100 µM (inactive)
- GI50 (BT-549): > 100 µM (inactive)
- GI50 (SN12C): > 100 µM (inactive)
- GI50 (SR): 23.4 µM (inactive)
- GI50 (KM12): > 100 µM (inactive)
- GI50 (TK-10): 94.8 µM (inactive)
- GI50 (MDA-N): > 100 µM (inactive)
- GI50 (EKVX): > 100 µM (inactive)
- GI50 (OVCAR-8): > 100 µM (inactive)
- GI50 (MCF7): 86.9 µM (inactive)
- GI50 (MOLT-4): 29.3 µM (inactive)
- GI50 (RXF 393): > 100 µM (inactive)
- GI50 (UACC-257): > 100 µM (inactive)
- GI50 (DU-145): > 100 µM (inactive)
- GI50 (HCC 2998): > 100 µM (inactive)
- GI50 (CCRF-CEM): > 100 µM (inactive)
- GI50 (IGROV-1): > 100 µM (inactive)
- GI50 (HCT-15): > 100 µM
- GI50 (UO-31): > 100 µM (inactive)
- GI50 (OVCAR-5): > 100 µM (inactive)
- GI50 (PC-3): > 100 µM (inactive)
- GI50 (RPMI-8226): > 100 µM (inactive)
- GI50 (SW-620): > 100 µM (inactive)
- GI50 (M14): > 100 µM (inactive)
- GI50 (SK-OV-3): > 100 µM (inactive)
- GI50 (U-251): > 100 µM (inactive)
- GI50 (Hs-578T): > 100 µM (inactive)
- GI50 (COLO 205): > 100 µM (inactive)
- GI50 (SF-268): > 100 µM (inactive)
- GI50 (SK-MEL-5): 69.5 µM (inactive)

Compound: COC(=O)c1cc(C#N)[nH]c1-c1ccsc1
- GI50 (HL-60): 18.2 µM (inactive)
- GI50 (HT-29): > 100 µM (inactive)
- GI50 (OVCAR-3): > 100 µM (inactive)
- GI50 (LOX IMVI): > 100 µM (inactive)
- GI50 (HCT-116): > 100 µM (inactive)
- GI50 (NCI/ADR-RES): > 100 µM (inactive)
- GI50 (OVCAR-4): > 100 µM (inactive)
- GI50 (SF-295): > 100 µM (inactive)
- GI50 (MDA-MB-231): > 100 µM (inactive)
- GI50 (T47D): 25.1 µM (inactive)
- GI50 (SNB-75): > 100 µM (inactive)
- GI50 (HOP-62): > 100 µM (inactive)
- GI50 (A498): 95.5 µM (inactive)
- GI50 (CAKI-1): 51.2 µM (inactive)
- GI50 (SK-MEL-2): > 100 µM (inactive)
- GI50 (HOP-92): > 100 µM (inactive)
- GI50 (786-0): > 100 µM (inactive)
- GI50 (MDA-MB-435): > 100 µM (inactive)
- GI50 (UACC-62): > 100 µM (inactive)
- GI50 (NCI-H226): > 100 µM (inactive)
- GI50 (NCI-H23): > 100 µM (inactive)
- GI50 (Malme-3M): > 100 µM (inactive)
- GI50 (ACHN): 85.7 µM (inactive)
- GI50 (SK-MEL-28): > 100 µM (inactive)
- GI50 (A549): > 100 µM (inactive)
- GI50 (NCI-H522): 87.7 µM (inactive)
- GI50 (BT-549): 58.7 µM (inactive)
- GI50 (SN12C): > 100 µM (inactive)
- GI50 (SR): 29.9 µM (inactive)
- GI50 (KM12): > 100 µM (inactive)
- GI50 (TK-10): > 100 µM (inactive)
- GI50 (MDA-N): > 100 µM (inactive)
- GI50 (EKVX): 74.8 µM (inactive)
- GI50 (OVCAR-8): > 100 µM (inactive)
- GI50 (MCF7): 10 µM (inactive)
- GI50 (MOLT-4): 8.63 µM (inactive)
- GI50 (RXF 393): 72.4 µM (inactive)
- GI50 (K562): 53.1 µM (inactive)
- GI50 (UACC-257): 54.3 µM (inactive)
- GI50 (DU-145): > 100 µM (inactive)
- GI50 (HCC 2998): > 100 µM (inactive)
- GI50 (CCRF-CEM): 76.2 µM (inactive)
- GI50 (IGROV-1): > 100 µM (inactive)
- GI50 (HCT-15): 70.1 µM
- GI50 (UO-31): 46.3 µM (inactive)
- GI50 (OVCAR-5): > 100 µM (inactive)
- GI50 (PC-3): > 100 µM (inactive)
- GI50 (RPMI-8226): 22.5 µM (inactive)
- GI50 (SW-620): > 100 µM (inactive)
- GI50 (M14): > 100 µM (inactive)
- GI50 (SK-OV-3): > 100 µM (inactive)
- GI50 (U-251): > 100 µM (inactive)
- GI50 (Hs-578T): > 100 µM (inactive)
- GI50 (COLO 205): > 100 µM (inactive)
- GI50 (SF-268): > 100 µM (inactive)
- GI50 (SK-MEL-5): > 100 µM (inactive)
